The values below come from patent publication US12110311B2, “Cyclic deoxyribonucleotide compounds” (NUCORION PHARMACEUTICALS, INC., priority 2019, dated 2024).

Data set [1] is described as follows: Tissue distribution following oral administration in rats (prodrug and metabolite levels in liver and blood). Type of data set: in vivo. Conditions: rat, 1 hour after oral administration, 5 mg/kg. Here is the method: The liver specificity of the disclosed compounds is compared relative to a corresponding active compound in the liver and other organs that could be targets of toxicity.
Reference compounds and the cyclic deoxyribonucleotide compounds are administered at 5-50 mg/kg to fasted rats by oral gavage. Plasma concentrations of the metabolites, and parent compounds in circulation and in the hepatic portal vein are determined by HPLC-UV, and the liver, small intestine, and other organ concentrations are measured by LC-MS using the standard chromatography method.

For data set [2] the following is noted: in vivo; cited from earlier work.
The mark [3] stands for this setting: prodrug level in blood, read-out: Drug blood.
[4] abbreviates: prodrug level in liver, read-out: Drug liver.

Read-outs that look alike come from different tables or passages of the source.

As to `CCCOC(=O)c1ccccc1COP1(=O)OC[C@H]2O[C@@H](n3cc(F)c(=O)[nH]c3=O)C[C@@H]2O1` (stereo partly drawn) [Compound 126, Propyl 2-((((4aR,6R,7aS)-6-(5-fluoro-2,4-dioxo-3,4-dihydropyrimidin-1(2H)-yl)-2-oxidotetrahydro-4H-furo[3,2-d][1,3,2]dioxaphosphinin-2-yl)oxy)methyl)benzoate], the concentration at 1 h in data set [1] (setting [3]) was 2.7 ng/mL; in data set [1] (setting [4]) it was 9.3 ng/g.
Take `O=c1[nH]cc(F)c(=O)[nH]1` [5-Fluorouracil]: the biological half-life in data set [2] is given as roughly 16 minutes.
For `CC(C)OC(=O)c1ccccc1COP1(=O)OC[C@H]2O[C@@H](n3cc(F)c(=O)[nH]c3=O)C[C@@H]2O1` (stereo partly drawn) [Compound 124, Isopropyl 2-((((4aR,6R,7aS)-6-(5-fluoro-2,4-dioxo-3,4-dihydropyrimidin-1(2H)-yl)-2-oxidotetrahydro-4H-furo[3,2-d][1,3,2]dioxaphosphinin-2-yl)oxy)methyl)benzoate], the concentration at 1 h in data set [1] (setting [3]) was found to be 11 ng/mL; in data set [1] (setting [4]), 668 ng/g.
